Each block holds one compound with its values, some of them ahead of it. Activity calls are given as the source filed them. The rule behind the calls is not given here.
Assays:
[1] = target: Metabotropic glutamate receptor 5 (Rattus norvegicus) (UniProt P31424); experiment: Negative allosteric modulation of rat mGlu5 receptor expressed in HEK293 cells assessed as inhibition of glutamate induced-calcium mobilization at 30 uM preincubated for 2.3 mins followed by glutamate addition measured after 1.7 mins by Fluo-4 AM dye based fluorescence assay relative to glutamate; assay type: functional, cell-based
[2] = target: Metabotropic glutamate receptor 5 (Rattus norvegicus, UniProt P31424); experiment: Negative allosteric modulation of rat mGlu5 receptor expressed in HEK293 cells assessed as inhibition of glutamate induced-calcium mobilization preincubated for 2.3 mins followed by glutamate addition measured after 1.7 mins by Fluo-4 AM dye based fluorescence assay; assay type: functional, cell-based
[3] = target: Cytochrome P450 2C9 (Homo sapiens, UniProt P11712)
[4] = Cmax in rat at 10 mg/kg, po; assay type: ADME, organism-based; parameters: dose 10 mg/kg, route oral; details: in vivo
[5] = Brain to plasma partition coefficient, Kp of the compound in rat at 3 mg/kg, po; assay type: ADME, organism-based
[6] = Apparent permeability of the compound across basolateral side to apical side in MDCK cells expressing MDR1 measured every 30 mins for 2 hrs; assay type: ADME, cell-based, Canis lupus familiaris; details: dog
[7] = tested on: Plasma; details: rat, 4 h, 5 µM
[8] = target: T1, Cytochrome P450 1A2 (Homo sapiens, UniProt P05177)
T1 sequence (P05177 whole entry): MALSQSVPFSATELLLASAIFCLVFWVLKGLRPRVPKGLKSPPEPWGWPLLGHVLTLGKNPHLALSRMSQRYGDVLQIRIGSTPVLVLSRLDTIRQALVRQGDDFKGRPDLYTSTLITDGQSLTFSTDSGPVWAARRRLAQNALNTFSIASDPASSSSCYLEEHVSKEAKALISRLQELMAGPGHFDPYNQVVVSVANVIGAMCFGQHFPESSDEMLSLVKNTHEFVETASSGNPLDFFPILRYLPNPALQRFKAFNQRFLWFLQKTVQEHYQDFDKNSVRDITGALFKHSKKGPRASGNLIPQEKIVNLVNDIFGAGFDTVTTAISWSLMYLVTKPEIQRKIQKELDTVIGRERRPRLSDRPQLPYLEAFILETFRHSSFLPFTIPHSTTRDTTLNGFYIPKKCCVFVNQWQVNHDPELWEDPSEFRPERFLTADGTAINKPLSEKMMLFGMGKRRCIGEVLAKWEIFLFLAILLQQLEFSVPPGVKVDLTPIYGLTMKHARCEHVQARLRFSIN

[9] = target: Sodium-dependent dopamine transporter (Homo sapiens, UniProt Q01959); assay type: ADME, cell-based
[10] = target: T2, DAT (sodium-dependent dopamine transporter) (Homo sapiens, UniProt Q01959); experiment: in vitro
[11] = tested on: Brain; experiment: Fraction unbound in rat brain homogenates at 5 uM after 6 hrs by equilibrium dialysis method; assay type: ADME, tissue-based; details: brain homogenate
[12] = tested on: Mus musculus; experiment: Anxiolytic-like activity in ip dosed Harlan CD-1 mouse marble burying model of OCD assessed as suppression of marble burying activity administered 15 mins prior to test measured over 30 mins; assay type: functional; details: Harlan CD-1, ip, read-out: MED
[13] = Ratio of unbound brain to plasma concentration in rat at 3 mg/kg, po; assay type: ADME, organism-based
[14] = target: Cytochrome P450 3A4 (Homo sapiens, UniProt P08684)
[15] = Half life in rat at 1 mg/kg, iv; assay type: ADME, organism-based; details: in vivo
[16] = target: Cytochrome P450 2D6 (Homo sapiens, UniProt P10635)
[17] = Mean residence time in rat at 1 mg/kg, iv; assay type: ADME, organism-based; details: in vivo
[18] = Oral bioavailability in rat at 10 mg/kg; assay type: ADME, organism-based; details: in vivo
[19] = AUC in rat at 10 mg/kg, po; assay type: ADME, organism-based; details: in vivo
[20] = Plasma clearance in rat at 1 mg/kg, iv; assay type: ADME, organism-based
[21] = Volume of distribution at steady state in rat at 1 mg/kg, iv; assay type: ADME, organism-based; details: in vivo, read-out: Vdss
[22] = Apparent permeability of the compound across apical side to basolateral side in MDCK cells expressing MDR1 measured every 30 mins for 2 hrs; assay type: ADME, cell-based, Canis lupus familiaris; details: dog
[23] = tested on: Plasma; details: human, 4 h, 5 µM
[24] = target: Platelet-activating factor receptor (Homo sapiens) (UniProt P25105); experiment: Displacement of [3H]PAF from human PAF at 10 uM after 3 hrs by scintillation counting method relative to control
[25] = Tmax in rat at 10 mg/kg, po; assay type: ADME, organism-based; details: in vivo
[26] = tested on: Mus musculus; experiment: Anxiolytic-like activity in Harlan CD-1 mouse marble burying model of OCD assessed as suppression of marble burying activity at 10 mg/kg, ip administered 15 mins prior to test measured over 30 mins; assay type: functional, organism-based
[27] = target: T2, DAT (sodium-dependent dopamine transporter); experiment: Inhibition of full-length recombinant human DAT expressed in CHOK1 cells assessed as reduction in [3H]dopamine uptake at 10 uM pretreated for 20 mins followed by [3H]dopamine addition measured after 10 mins by scintillation counting method relative to control; assay type: cell-based; details: CHO-K1 cells expressing full-length recombinant human DAT, probe [3H]dopamine
[28] = CHO-K1 cells expressing recombinant human DAT, probe [125I]RTI-55

Metabotropic glutamate receptor 5 (Rattus norvegicus), sequence (P31424 21-1203 limits assumed): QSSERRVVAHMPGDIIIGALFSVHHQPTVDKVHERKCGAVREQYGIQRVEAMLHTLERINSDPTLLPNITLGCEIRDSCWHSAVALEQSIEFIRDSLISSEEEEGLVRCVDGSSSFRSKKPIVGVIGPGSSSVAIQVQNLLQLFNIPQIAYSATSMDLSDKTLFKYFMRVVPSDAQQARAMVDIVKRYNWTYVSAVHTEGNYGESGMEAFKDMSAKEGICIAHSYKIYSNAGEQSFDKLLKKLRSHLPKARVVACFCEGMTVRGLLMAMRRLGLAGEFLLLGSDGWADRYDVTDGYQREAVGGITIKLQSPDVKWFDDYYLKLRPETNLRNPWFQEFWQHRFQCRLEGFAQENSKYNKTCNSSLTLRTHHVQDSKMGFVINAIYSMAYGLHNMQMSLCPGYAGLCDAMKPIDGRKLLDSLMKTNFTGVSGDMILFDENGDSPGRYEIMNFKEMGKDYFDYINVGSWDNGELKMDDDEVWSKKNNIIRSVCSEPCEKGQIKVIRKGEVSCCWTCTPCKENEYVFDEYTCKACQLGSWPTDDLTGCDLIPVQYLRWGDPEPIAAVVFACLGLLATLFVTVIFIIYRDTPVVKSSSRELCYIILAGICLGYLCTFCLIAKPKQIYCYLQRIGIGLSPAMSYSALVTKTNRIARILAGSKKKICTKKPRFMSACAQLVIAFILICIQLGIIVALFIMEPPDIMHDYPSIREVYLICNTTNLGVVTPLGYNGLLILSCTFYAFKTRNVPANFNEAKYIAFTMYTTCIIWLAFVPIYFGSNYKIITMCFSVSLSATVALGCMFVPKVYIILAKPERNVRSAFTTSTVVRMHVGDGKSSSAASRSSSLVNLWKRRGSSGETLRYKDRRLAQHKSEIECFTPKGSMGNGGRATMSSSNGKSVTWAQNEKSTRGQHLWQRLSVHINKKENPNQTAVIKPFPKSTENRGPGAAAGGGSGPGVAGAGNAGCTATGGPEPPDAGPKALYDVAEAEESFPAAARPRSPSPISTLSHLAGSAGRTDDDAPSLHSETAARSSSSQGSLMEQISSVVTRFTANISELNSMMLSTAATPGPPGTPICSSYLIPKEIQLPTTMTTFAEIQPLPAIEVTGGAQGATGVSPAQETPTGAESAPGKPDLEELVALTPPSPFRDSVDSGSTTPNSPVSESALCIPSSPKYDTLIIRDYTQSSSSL
Metabotropic glutamate receptor 5, sequence (P31424 whole entry): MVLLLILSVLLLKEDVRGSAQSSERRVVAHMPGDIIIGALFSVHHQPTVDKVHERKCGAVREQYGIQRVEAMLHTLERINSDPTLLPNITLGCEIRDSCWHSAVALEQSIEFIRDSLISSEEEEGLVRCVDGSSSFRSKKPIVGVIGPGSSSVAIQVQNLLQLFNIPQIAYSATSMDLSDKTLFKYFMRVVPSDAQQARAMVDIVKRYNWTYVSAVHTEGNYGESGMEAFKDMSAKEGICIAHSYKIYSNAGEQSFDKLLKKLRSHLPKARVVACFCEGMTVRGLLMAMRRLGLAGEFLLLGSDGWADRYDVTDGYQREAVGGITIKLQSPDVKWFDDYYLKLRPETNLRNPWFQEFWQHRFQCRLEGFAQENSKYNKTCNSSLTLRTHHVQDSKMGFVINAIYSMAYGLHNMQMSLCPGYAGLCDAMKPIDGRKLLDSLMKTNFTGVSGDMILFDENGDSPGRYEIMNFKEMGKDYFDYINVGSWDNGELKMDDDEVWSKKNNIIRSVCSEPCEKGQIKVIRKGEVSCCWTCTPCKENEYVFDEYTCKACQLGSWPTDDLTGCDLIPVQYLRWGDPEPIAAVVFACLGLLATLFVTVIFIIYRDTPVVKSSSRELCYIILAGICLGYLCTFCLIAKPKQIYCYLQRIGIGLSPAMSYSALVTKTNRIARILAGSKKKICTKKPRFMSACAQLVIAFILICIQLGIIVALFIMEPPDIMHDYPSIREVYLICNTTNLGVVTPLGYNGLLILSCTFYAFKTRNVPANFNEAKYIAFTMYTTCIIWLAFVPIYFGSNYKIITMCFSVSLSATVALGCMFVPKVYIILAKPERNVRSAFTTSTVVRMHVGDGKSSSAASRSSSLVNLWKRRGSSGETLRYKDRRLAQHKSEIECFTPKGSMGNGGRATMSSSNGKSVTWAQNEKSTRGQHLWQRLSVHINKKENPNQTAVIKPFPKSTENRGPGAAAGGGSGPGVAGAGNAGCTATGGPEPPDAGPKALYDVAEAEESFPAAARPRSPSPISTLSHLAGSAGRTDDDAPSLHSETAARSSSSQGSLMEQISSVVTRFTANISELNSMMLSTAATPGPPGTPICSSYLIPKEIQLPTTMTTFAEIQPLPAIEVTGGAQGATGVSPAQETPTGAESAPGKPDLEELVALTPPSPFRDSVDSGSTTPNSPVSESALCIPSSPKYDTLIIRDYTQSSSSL
Cytochrome P450 3A4, sequence (P08684 whole entry): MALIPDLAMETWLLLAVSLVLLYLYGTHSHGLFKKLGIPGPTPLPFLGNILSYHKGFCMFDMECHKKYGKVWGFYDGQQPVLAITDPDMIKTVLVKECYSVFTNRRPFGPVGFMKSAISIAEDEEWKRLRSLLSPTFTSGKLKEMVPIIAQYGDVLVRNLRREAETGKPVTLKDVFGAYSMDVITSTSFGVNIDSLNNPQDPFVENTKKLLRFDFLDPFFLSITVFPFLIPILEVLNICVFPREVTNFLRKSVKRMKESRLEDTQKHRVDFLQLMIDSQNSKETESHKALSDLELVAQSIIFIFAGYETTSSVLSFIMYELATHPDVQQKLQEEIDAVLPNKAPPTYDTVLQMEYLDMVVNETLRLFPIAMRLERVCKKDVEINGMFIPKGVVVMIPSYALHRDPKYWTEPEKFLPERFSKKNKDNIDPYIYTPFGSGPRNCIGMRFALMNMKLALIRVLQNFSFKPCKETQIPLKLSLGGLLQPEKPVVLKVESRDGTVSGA
Cytochrome P450 2D6, sequence (P10635 whole entry): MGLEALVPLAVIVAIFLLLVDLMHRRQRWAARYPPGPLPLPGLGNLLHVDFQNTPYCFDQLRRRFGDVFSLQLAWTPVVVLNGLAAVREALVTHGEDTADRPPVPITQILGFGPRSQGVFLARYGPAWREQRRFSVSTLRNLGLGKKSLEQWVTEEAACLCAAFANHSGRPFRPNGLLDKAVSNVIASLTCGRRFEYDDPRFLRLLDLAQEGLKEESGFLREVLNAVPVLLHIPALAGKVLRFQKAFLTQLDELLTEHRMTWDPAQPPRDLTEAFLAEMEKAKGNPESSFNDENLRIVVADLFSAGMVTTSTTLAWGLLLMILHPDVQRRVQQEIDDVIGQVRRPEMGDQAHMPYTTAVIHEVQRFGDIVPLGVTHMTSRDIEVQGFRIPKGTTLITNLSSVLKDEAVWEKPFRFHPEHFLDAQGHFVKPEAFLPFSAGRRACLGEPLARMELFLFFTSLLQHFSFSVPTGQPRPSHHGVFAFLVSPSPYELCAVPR
T2 sequence (Q01959 whole entry): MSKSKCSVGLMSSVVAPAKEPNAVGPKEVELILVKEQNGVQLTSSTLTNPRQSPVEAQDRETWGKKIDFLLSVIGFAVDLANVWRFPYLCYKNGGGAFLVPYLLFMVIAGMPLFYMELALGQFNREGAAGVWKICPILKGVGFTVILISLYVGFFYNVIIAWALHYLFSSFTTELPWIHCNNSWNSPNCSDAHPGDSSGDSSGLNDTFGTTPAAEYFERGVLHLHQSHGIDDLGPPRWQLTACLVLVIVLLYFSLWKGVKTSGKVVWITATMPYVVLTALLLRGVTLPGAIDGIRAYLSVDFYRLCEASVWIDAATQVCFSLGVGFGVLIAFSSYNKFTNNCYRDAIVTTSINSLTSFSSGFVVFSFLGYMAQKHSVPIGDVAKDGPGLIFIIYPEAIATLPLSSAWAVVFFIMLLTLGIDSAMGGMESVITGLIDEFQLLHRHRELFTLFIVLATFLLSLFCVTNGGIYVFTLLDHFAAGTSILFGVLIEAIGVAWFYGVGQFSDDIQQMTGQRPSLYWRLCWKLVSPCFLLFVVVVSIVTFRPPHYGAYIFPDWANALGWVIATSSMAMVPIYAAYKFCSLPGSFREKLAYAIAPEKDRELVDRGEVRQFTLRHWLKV
Sodium-dependent dopamine transporter, sequence (Q01959 whole entry): as above
Cytochrome P450 2C9, sequence (P11712 whole entry): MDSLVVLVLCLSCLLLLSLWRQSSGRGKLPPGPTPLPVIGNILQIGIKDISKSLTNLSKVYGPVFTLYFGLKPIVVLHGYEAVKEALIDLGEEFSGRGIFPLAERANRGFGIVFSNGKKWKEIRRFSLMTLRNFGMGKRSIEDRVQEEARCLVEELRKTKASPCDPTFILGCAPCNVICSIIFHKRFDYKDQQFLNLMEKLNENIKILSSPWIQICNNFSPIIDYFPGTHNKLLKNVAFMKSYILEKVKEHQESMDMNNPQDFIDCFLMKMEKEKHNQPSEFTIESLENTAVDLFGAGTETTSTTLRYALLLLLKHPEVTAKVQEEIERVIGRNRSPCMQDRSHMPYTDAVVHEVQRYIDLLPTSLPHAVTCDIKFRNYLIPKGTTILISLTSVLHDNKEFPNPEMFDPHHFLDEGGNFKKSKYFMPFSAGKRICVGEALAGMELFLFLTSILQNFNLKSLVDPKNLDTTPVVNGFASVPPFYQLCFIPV
Platelet-activating factor receptor (Homo sapiens), sequence (P25105 whole entry): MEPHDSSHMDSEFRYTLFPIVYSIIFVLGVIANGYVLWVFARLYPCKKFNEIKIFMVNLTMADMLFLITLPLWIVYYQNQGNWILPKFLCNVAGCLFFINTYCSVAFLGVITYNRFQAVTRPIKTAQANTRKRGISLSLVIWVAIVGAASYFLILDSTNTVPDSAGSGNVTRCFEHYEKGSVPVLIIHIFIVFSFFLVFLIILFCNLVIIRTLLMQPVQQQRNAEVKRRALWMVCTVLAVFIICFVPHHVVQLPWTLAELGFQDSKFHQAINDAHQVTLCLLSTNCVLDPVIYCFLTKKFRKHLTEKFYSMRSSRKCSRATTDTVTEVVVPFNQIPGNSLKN

Structure (SMILES): Cc1ccc(NC(=O)c2cc(Oc3cncc(F)c3)cn3ccnc23)nc1
- IC50 [3]: 6900 nM
- Fu [7]: 0.005
- IC50 [8]: 800 nM
- %max [1]: 1.4%
- IC50 [14]: 1900 nM
- IC50 [16]: > 30000 nM
- Fu [23]: 0.016
- IC50 [2]: 74 nM

Structure (SMILES): O=C(Nc1ccc(F)cn1)c1cc(Oc2cncnc2)cn2cnnc12
- %max [1]: 1.6%
- IC50 [2]: 324 nM

Structure (SMILES): Cc1cc(Oc2cncnc2)cc(C(=O)Nc2ccc(F)cn2)n1
- Activity [26]: Active

Structure (SMILES): COc1ccc(NC(=O)c2cc(Oc3cncc(F)c3)cn3ccnc23)nc1
- IC50 [3]: 5700 nM
- Fu [7]: 0.014
- IC50 [8]: 1100 nM
- %max [1]: 1.6%
- IC50 [14]: 2000 nM
- IC50 [16]: > 30000 nM
- Fu [23]: 0.028
- IC50 [2]: 55 nM

Structure (SMILES): O=C(Nc1ccc(F)cn1)c1cc(Oc2cncc(F)c2F)cn2ncnc12
- IC50 [3]: > 30000 nM
- Fu [7]: 0.066
- IC50 [8]: 4100 nM
- inhibition at 3 h, 10 µM [10, 28]: 87%
- %max [1]: 2%
- IC50 [14]: > 30000 nM
- IC50 [16]: > 30000 nM
- Fu [23]: 0.067
- IC50 [2]: 41 nM

Structure (SMILES): O=C(Nc1ccc(F)cn1)c1cc(Oc2cc(F)cnc2F)cn2ncnc12
- %max [1]: 2.2%
- IC50 [2]: 117 nM

Structure (SMILES): O=C(Nc1ccc(F)cn1)c1cc(Oc2cnc(F)c(F)c2)cn2ncnc12
- IC50 [3]: > 30000 nM
- Fu [7]: 0.023
- IC50 [8]: > 30000 nM
- IC50 [9]: 2870 nM
- inhibition at 3 h, 10 µM [10]: 67%
- %max [1]: 1.6%
- IC50 [14]: 23000 nM
- IC50 [16]: > 30000 nM
- Fu [23]: 0.031
- IC50 [2]: 56 nM

More lines, in order of falling IC50 [2], values ahead:

- %max [1]: 3.3%
- IC50 [2]: 1410 nM
Structure (SMILES): Cc1nc2c(C(=O)Nc3ccc(F)cn3)cc(Oc3cncc(F)c3)cn2n1

- %max [1]: 2.7%
- IC50 [2]: 372 nM
Structure (SMILES): Cc1nnc2c(C(=O)Nc3ccc(F)cn3)cc(Oc3cncc(F)c3)cn12

- %max [1]: 1.7%
- IC50 [2]: 129 nM
Structure (SMILES): O=C(Nc1ccc(F)cn1)c1cc(Oc2cncc(OC(F)F)c2)cn2ncnc12

- %max [1]: 1.1%
- IC50 [2]: 89 nM
Structure (SMILES): O=C(Nc1ccc(F)cn1)c1cc(Oc2cncc(Cl)c2)cn2ncnc12

- IC50 [3]: > 30000 nM
- Fu [7]: 0.168
- IC50 [8]: 9900 nM
- IC50 [9]: > 10000 nM
- inhibition at 3 h, 10 µM [10, 28]: 60%
- %max [1]: 1.5%
- IC50 [14]: > 30000 nM
- IC50 [16]: > 30000 nM
- inhibition at 10 min, 10 µM [27]: 42%
- Fu [23]: 0.313
- IC50 [2]: 74 nM
Structure (SMILES): O=C(Nc1ccc(F)cn1)c1cc(Oc2cncnc2)cn2ncnc12

- IC50 [3]: 1600 nM
- Fu [7]: 0.023
- IC50 [8]: 600 nM
- %max [1]: 1.5%
- IC50 [14]: 2300 nM
- IC50 [16]: 24800 nM
- Fu [23]: 0.026
- IC50 [2]: 38 nM
Structure (SMILES): O=C(Nc1cccc(F)n1)c1cc(Oc2cncc(F)c2)cn2ccnc12

- IC50 [3]: > 30000 nM
- Cmax [4]: 573 nM
- Kp [5]: 1.7
- Papp [6]: 11.1 ×10⁻⁶ cm/s
- Fu [7]: 0.051
- IC50 [8]: 4300 nM
- inhibition at 3 h, 10 µM [10, 28]: 91%
- Fu [11]: 0.065
- %max [1]: 2.3%
- K(p,uu,brain) [13]: 2.1
- IC50 [14]: 17800 nM
- half-life [15]: 1.32 h
- IC50 [16]: > 30000 nM
- MRT [17]: 1.97 h
- bioavailability [18]: 17%
- AUC [19]: 5.67 µM·h
- clearance [20]: 14 mL/min/kg
- Vd [21]: 1.6 L/kg
- Papp [22]: 4.7 ×10⁻⁶ cm/s
- Fu [23]: 0.1
- Tmax [25]: 3 h
- IC50 [2]: 27 nM
Structure (SMILES): O=C(Nc1ccc(F)cn1)c1cc(Oc2cncc(F)c2)cn2cnnc12
- minimal effective dose [12]: 3 mg/kg

- IC50 [3]: > 30000 nM
- Cmax [4]: 673 nM
- Kp [5]: 1.4
- Papp [6]: 13.1 ×10⁻⁶ cm/s
- Fu [7]: 0.066
- IC50 [8]: 15100 nM
- IC50 [9]: 730 nM
- inhibition at 3 h, 10 µM [10, 28]: 89%
- Fu [11]: 0.028
- %max [1]: 1.5%
- K(p,uu,brain) [13]: 0.6
- IC50 [14]: > 30000 nM
- half-life [15]: 1.35 h
- IC50 [16]: > 30000 nM
- MRT [17]: 2.38 h
- bioavailability [18]: 20%
- AUC [19]: 8.3 µM·h
- clearance [20]: 11 mL/min/kg
- Vd [21]: 1.6 L/kg
- Papp [22]: 10 ×10⁻⁶ cm/s
- Fu [23]: 0.071
- inhibition [24]: 55%
- Tmax [25]: 3 h
- IC50 [2]: 20 nM
Structure (SMILES): O=C(Nc1ccc(F)cn1)c1cc(Oc2cncc(F)c2)cn2ncnc12
- minimal effective dose [12]: 3 mg/kg

- IC50 [3]: 5700 nM
- Fu [7]: 0.028
- IC50 [8]: 800 nM
- %max [1]: 1.6%
- IC50 [14]: 3900 nM
- IC50 [16]: > 30000 nM
- Fu [23]: 0.02
- IC50 [2]: 20 nM
Structure (SMILES): O=C(Nc1ccc(F)cn1)c1cc(Oc2cncc(F)c2)cn2ccnc12

From ChEMBL document CHEMBL4043265, “Discovery of imidazo[1,2-a]-, [1,2,4]triazolo[4,3-a]-, and [1,2,4]triazolo[1,5-a]pyridine-8-carboxamide negative allosteric modulators of metabotropic glutamate receptor subtype 5” (Bioorg Med Chem Lett, 2017)
